In paper PMC11396839, “Structure-Aided Computational Design of Triazole-Based Targeted Covalent Inhibitors of Cruzipain” (Molecules, 2024):
Read-outs that look alike come from different tables or passages of the source.

How the values were obtained:
[1] = target: T1, recombinant CZP (cruzain) (Trypanosoma cruzi, UniProt P25779); experiment: CZP inhibition, cleavage of fluorogenic substrate Z-FR-AMC (initial screening and IC50); type: biochemical, T. cruzi; conditions: for times lower potency than the most active analogues (Ald-6 and Ald-10): CZP IC50 ratio
T1 construct: gift of Allison Doak and Prof; Brian Shoichet (University of California San Francisco)
Description: The previously reported methods were followed to evaluate the in vitro activity against CZP [91, 92, 93, 94]. Allison Doak and Prof. Brian Shoichet (University of California San Francisco, San Francisco, CA, USA) generously provided recombinant CZP (cruzain). The enzyme activity was measured by monitoring the cleavage of the fluorogenic substrate Z-FR-AMC at 25 °C. Unless stated otherwise, assays were performed using 2.5 μ M of substrate ( KM = 0.5 ± 0.1 μ M) and 0.5 nM CZP in a 0.1 M sodium acetate buffer, pH 5.5, 0.01% Triton X-100 and 2 mM β -mercaptoethanol. DMSO and 1 μ M E-64 were employed as negative and positive controls, respectively, in all assays. Fluorescence was monitored at 340/440 nm (excitation/emission) over time in a Biotec 87 Synergy 2 fluorimeter at the Multiuser Laboratory of the Biochemistry and Immunology Department (UFMG, Belo Horizonte, Brazil). All assays were performed in triplicate in two independent experiments.
Initial screening. For the initial screening against CZP, compounds at 100 μ M were tested against CZP with and without a 10min pre-incubation with the enzyme. The fluorescence was monitored for 10 min at 5 s intervals. DMSO and E-64 were employed in all assays as negative and positive controls, respectively. Initial velocities of the negative control (DMSO) were compared to those in the presence of compounds to calculate the percentage of inhibition. The reported values correspond to the mean and standard error of the mean (SEM) of experiments performed in triplicate in two independent experiments.
IC50 determination. Compounds in at least eight distinct compound concentrations (400 μ M, 100 μ M, 25 μ M, 6.25 μ M, 1.5 μ M, 0.4 μ M, 0.1 μ M and 0.025 μ M) were incubated with CZP for 10 min, and once the substrate was added, the fluorescence was monitored for 10 min at 5 s intervals. IC50 curves were obtained from a non-linear fit of the inhibition values versus the logarithmic concentration of the compounds. The reported IC50 values are the mean and SEM of two independent measurements performed in triplicate.

[2] = target: T2, recombinant human cathepsin L (hCatL) (Homo sapiens, UniProt P07711); experiment: hCatL screening, cleavage of Z-FR-AMC; type: biochemical; conditions: for inhibition at 100 µM: read-out: % hCatL inhib.
T2 construct: purchased Sigma-Aldrich
Description: The recombinant human cathepsin L (hCatL) (Sigma-Aldrich) was activated prior to the assays. First, 10 ng/ μ L of the enzyme was incubated in the activation buffer (50 mM MES, pH 6, 1 mM EDTA, 5mM DTT) for 30 min at 37 °C. hCatL activity was measured based on the cleavage of the fluorescent substrate Z-FR-AMC in a Biotec 87 Synergy 2 fluorimeter at the Multiuser Laboratory of the Biochemistry and Immunology Department (UFMG, Brazil). The assays were executed in 96-well round bottom black plates in 50 mM MES buffer, pH 6, containing 1 mM EDTA, 5 mM DTT, 0.001% Triton-X100, 5 pg/ μ L enzyme and 25 μ M Z-FR-AMC at 37 °C. The triazole-based derivatives were tested against hCatL, at 100 μ M, with a 10 min pre-incubation with the enzyme. The initial velocities of the DMSO control were compared to those in the presence of the compounds. Assays were executed in triplicate in two independent experiments, and enzyme activity was measured for 20 min.

[3] = tested on: T. cruzi (Tulahuen trypomastigotes overexpressing β-galactosidase) in Vero cells; experiment: T. cruzi inhibition assay, infection model in Vero cells, β-galactosidase activity; type: cell-based, Trypanosoma cruzi; conditions: 50 μM (Ald-4 20 μM)
Description: To perform the assay, the drug screening method reported by Buckner et al. was adapted. Vero cells were seeded at 1 × 10^4 per well on 96-well culture plates in 100 μ L MEM-5% FBS. Tulahuen trypomastigotes overexpressing the E. coli β -galactosidase protein were distributed in triplicates on the plate. After a 2 h incubation at 37 °C, the culture media were extracted and replaced with fresh MEM-5% FBS with 1 μ M, 10 μ M or 50 μ M solutions of the triazole-based inhibitors, and the plate was incubated another 72 h at 37 °C. Ninety-six hours post infection, the cell culture media were removed and cells and intracellular amastigotes were lysed in 100 μ L lysis buffer (25 mM Tris pH 8, 2 mM EDTA, 2 mM DTT, 1% Triton X-100, 10% glycerol in ultrapure MQ water) for 10 min at 37 °C. Then, 100 μ L 2× reaction buffer (200 mM sodium phosphate pH 8, 2 mM MgCl2, 100 mM 2-mercaptoethanol and 1.33 mg.mL^−1 o-nitrophenyl- β -galactoside (ONPG)) was added and the reaction was allowed to proceed until a yellow color developed (1–2 h at 37 °C). The absorbance at 420 nm was measured in a Synergy HTX multi-mode microplate reader (Biotek Instruments, Winooski, VT, USA) and normalized to the value obtained for the infection in the absence of inhibitors. To determine its IC50, Ald-6 was evaluated at nine different concentrations (0.098, 0.195, 0.39, 0.78, 1.56 3.13 6.25, 12.5 and 50.0 μ M), following the same protocol. Each infection condition and inhibitor were tested in triplicates in four independent experiments.

[4] = 100 μM, 10 min pre-incubation of the enzyme with compound, read-out: % CZP inh.
[5] = 10 min incubation with CZP, mean ± SEM of two independent experiments, read-out: IC50 (μM) against CZP

T1 sequence (P25779 123-337): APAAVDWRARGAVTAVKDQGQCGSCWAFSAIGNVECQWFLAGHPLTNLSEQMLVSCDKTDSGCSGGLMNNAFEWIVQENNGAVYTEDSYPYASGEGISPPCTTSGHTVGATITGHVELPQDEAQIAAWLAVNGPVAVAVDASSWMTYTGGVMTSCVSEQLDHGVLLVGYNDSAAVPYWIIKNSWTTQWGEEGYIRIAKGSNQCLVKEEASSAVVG
T2 sequence (P07711 114-333): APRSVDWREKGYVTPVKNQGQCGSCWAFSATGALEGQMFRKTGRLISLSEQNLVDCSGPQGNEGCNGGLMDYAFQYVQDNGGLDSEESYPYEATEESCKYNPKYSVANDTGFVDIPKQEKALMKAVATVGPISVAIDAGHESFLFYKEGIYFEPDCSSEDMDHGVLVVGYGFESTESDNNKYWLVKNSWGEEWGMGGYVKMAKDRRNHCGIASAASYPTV

SMILES	inhibition at 100 µM [1, 4] [%]	also measured
O=CC(Cc1ccccc1)n1cc(C(C2CCCCC2)N2CCc3ccccc3C2)nn1 (stereo not drawn) [Ald-16]	34 ± 5	–
COC(=O)C(c1ccccc1)n1cc(C(NCc2ccc3c(c2)OCO3)C2CCCCC2)nn1 (stereo not drawn) [Es-9]	6 ± 5	–
O=CC(Cc1ccccc1)n1cc(C(NCc2ccc3c(c2)OCO3)C2CCCCC2)nn1 (stereo not drawn) [Ald-1]	64 ± 5	selectivity for CZP over hCatL in words ([2]; 100 μM): selective CZP inhibitors; inhibition at 100 µM ([2]; 10 min incubation): 0%; IC50 [1]: 41 ± 4 µM; times lower potency than the most active analogues (Ald-6 and Ald-10) [1]: 12.4
CCOC(=O)C(CCSC)n1cc(C(C2CCCCC2)N2CCc3ccccc3C2)nn1 (stereo not drawn) [Es-18]	0	–
COC(=O)C(c1ccccc1)n1cc(C(C2CCCCC2)N2CCc3ccccc3C2)nn1 (stereo not drawn) [Es-19]	0	–
CSCCC(C=O)n1cc(C(NCc2ccc3c(c2)OCO3)C2CCCCC2)nn1 (stereo not drawn) [Ald-7]	42 ± 7	–
O=CC(Cc1c[nH]cn1)n1cc(C(NCc2ccc3c(c2)OCO3)C2CCCCC2)nn1 (stereo not drawn) [Ald-4]	83 ± 2	anti-T. cruzi/cytotoxicity balance in words [3]: acceptable anti-T. cruzi/cytotoxicity balance; selectivity for CZP over hCatL in words ([2]; 100 μM): selective CZP inhibitors; inhibition at 100 µM ([2]; 10 min incubation): 10 ± 3%; IC50 [1, 5]: 5 ± 2 µM
COC(=O)C(C(C)O)n1cc(C(C2CCCCC2)N2CCc3ccccc3C2)nn1 (stereo not drawn) [Es-21]	0	–
O=CC(Cc1c[nH]c2ccccc12)n1cc(C(C2CCCCC2)N2CCc3ccccc3C2)nn1 (stereo not drawn) [Ald-22]	55 ± 9	–
CC(C)C[C@H](NC(=O)[C@H]1O[C@@H]1C(=O)O)C(=O)NCCCCN=C(N)N [E-64, reference compound]	–	% hCatL inhib. ([2]; 100 μM, 10 min incubation): 97 ± 3%; CZP inhibition by positive control ([1]; 1 μM, 10 min preincubation): 98%; % CZP inh. ([1]; 100 μM, 10 min pre-incubation of the enzyme with compound): 98 ± 2%; % CZP inhib. wo/inc. ([1]; 100 μM, without prior incubation): 12± 8%
COC(=O)C(C)n1cc(C(NCc2ccc3c(c2)OCO3)C2CCCCC2)nn1 (stereo not drawn) [Es-8]	8 ± 7	–
COC(=O)C(CC(C)C)n1cc(C(NCc2ccc3c(c2)OCO3)C2CCCCC2)nn1 (stereo not drawn) [Es-5]	5 ± 2	–
CC(O)C(C=O)n1cc(C(NCc2ccc3c(c2)OCO3)C2CCCCC2)nn1 (stereo not drawn) [Ald-11]	58 ± 4	–
COC(=O)[C@H](CCCCN)n1cc(C(NCc2ccc3c(c2)OCO3)C2CCCCC2)nn1 (stereo partly drawn) [Es-6]	9 ± 2	–
CSCCC(C=O)n1cc(C(C2CCCCC2)N2CCc3ccccc3C2)nn1 (stereo not drawn) [Ald-18]	16 ± 4	–
COC(=O)C(CO)n1cc(C(NCc2ccc3c(c2)OCO3)C2CCCCC2)nn1 (stereo not drawn) [Es-10]	≥ 47	inhibition at 100 µM ([1]; read-out: % CZP inhib. wo/inc., 100 μM, without prior incubation): 43 ± 4%
COC(=O)[C@H](Cc1ccccc1)n1cc(C(NCc2ccc3c(c2)OCO3)C2CCCCC2)nn1 (stereo partly drawn) [Es-1]	15 ± 2	–
COC(=O)C(Cc1c[nH]c2ccccc12)n1cc(C(NCc2ccc3c(c2)OCO3)C2CCCCC2)nn1 (stereo not drawn) [Es-12]	15 ± 2	–
COC(=O)C(Cc1c[nH]c2ccccc12)n1cc(C(C2CCCCC2)N2CCc3ccccc3C2)nn1 (stereo not drawn) [Es-22]	1 ± 6	–

SMILES	inhibition at 100 µM [1, 4] [%]	also measured
CC(O)C(C=O)n1cc(C(C2CCCCC2)N2CCc3ccccc3C2)nn1 (stereo not drawn) [Ald-21]	8 ± 7	–
COC(=O)C(CO)n1cc(C(C2CCCCC2)N2CCc3ccccc3C2)nn1 (stereo not drawn) [Es-20]	5 ± 4	–
O=CC(CCC(=O)O)n1cc(C(NCc2ccc3c(c2)OCO3)C2CCCCC2)nn1 (stereo not drawn) [Ald-3]	8 ± 2	CZP inhibitory activity in words [1]: not active at all
COC(=O)C(Cc1ccc(O)cc1)n1cc(C(C2CCCCC2)N2CCc3ccccc3C2)nn1 (stereo not drawn) [Es-23]	1 ± 14	–
O=CC(CO)n1cc(C(C2CCCCC2)N2CCc3ccccc3C2)nn1 (stereo not drawn) [Ald-20]	83 ± 3	anti-T. cruzi/cytotoxicity balance in words [3]: acceptable anti-T. cruzi/cytotoxicity balance; selectivity for CZP over hCatL in words ([2]; 100 μM): selective CZP inhibitors; inhibition at 100 µM ([2]; 10 min incubation): 0%; IC50 [1]: 7 ± 4 µM
O=CC(Cc1c[nH]cn1)n1cc(C(C2CCCCC2)N2CCc3ccccc3C2)nn1 (stereo not drawn) [Ald-17]	38 ± 6	–
CCOC(=O)C(Cc1ccccc1)n1cc(C(C2CCCCC2)N2CCc3ccccc3C2)nn1 (stereo not drawn) [Es-16]	13 ± 6	–
COC(=O)C(Cc1c[nH]cn1)n1cc(C(NCc2ccc3c(c2)OCO3)C2CCCCC2)nn1 (stereo not drawn) [Es-4]	5 ± 4	–
COC(=O)C(C(C)C)n1cc(C(NCc2ccc3c(c2)OCO3)C2CCCCC2)nn1 (stereo not drawn) [Es-2]	9 ± 7	–
COC(=O)C(Cc1c[nH]cn1)n1cc(C(C2CCCCC2)N2CCc3ccccc3C2)nn1 (stereo not drawn) [Es-17]	6 ± 3	–
O=CC(Cc1c[nH]c2ccccc12)n1cc(C(NCc2ccc3c(c2)OCO3)C2CCCCC2)nn1 (stereo not drawn) [Ald-12]	56 ± 7	selectivity for CZP over hCatL in words ([2]; 100 μM): selective CZP inhibitors; inhibition at 100 µM ([2]; 10 min incubation): 0%; IC50 [1, 5]: 45.4 ± 0.3 µM; times lower potency than the most active analogues (Ald-6 and Ald-10) [1]: 13.8
O=CC(Cc1ccc(O)cc1)n1cc(C(NCc2ccc3c(c2)OCO3)C2CCCCC2)nn1 (stereo not drawn) [Ald-13]	83 ± 2	selectivity for CZP over hCatL in words ([2]; 100 μM): selective CZP inhibitors; inhibition at 100 µM ([2]; 10 min incubation): 0%; IC50 [1, 5]: 13 ± 5 µM; times lower potency than the most active analogues (Ald-6 and Ald-10) [1]: 3.9
CC(C)CC(C=O)n1cc(C(NCc2ccc3c(c2)OCO3)C2CCCCC2)nn1 (stereo not drawn) [Ald-5]	64 ± 2	selectivity for CZP over hCatL in words ([2]; 100 μM): selective CZP inhibitors; inhibition at 100 µM ([2]; 10 min incubation): 24 ± 9%; IC50 [1]: 7 ± 2 µM
O=CC(c1ccccc1)n1cc(C(NCc2ccc3c(c2)OCO3)C2CCCCC2)nn1 (stereo not drawn) [Ald-9]	11 ± 3	–
COC(=O)C(C(C)O)n1cc(C(NCc2ccc3c(c2)OCO3)C2CCCCC2)nn1 (stereo not drawn) [Es-11]	0	–
COC(=O)C(Cc1ccc(O)cc1)n1cc(C(NCc2ccc3c(c2)OCO3)C2CCCCC2)nn1 (stereo not drawn) [Es-13]	8 ± 1	–
COC(=O)C(CCC(=O)O)n1cc(C(NCc2ccc3c(c2)OCO3)C2CCCCC2)nn1 (stereo not drawn) [Es-3]	8 ± 7	–
O=CC(c1ccccc1)n1cc(C(C2CCCCC2)N2CCc3ccccc3C2)nn1 (stereo not drawn) [Ald-19]	3 ± 10	–
COC(=O)C(CCCNC(=N)N)n1cc(C(C2CCCCC2)N2CCc3ccccc3C2)nn1 (stereo not drawn) [Es-24]	6 ± 1	–
